pKd, pKi: −log10 of the molar value. Where “and” joins values, the source holds several entries; their conditions need not be identical. Identical values can stand only once. Entries after “also recorded” stand apart in the source; their conditions may differ. Like-named read-outs stand apart in the source and are kept apart here.

Test [1] has as its target T1, hPHGDH (Homo sapiens, UniProt O43175).
T1 sequence (O43175 1-533): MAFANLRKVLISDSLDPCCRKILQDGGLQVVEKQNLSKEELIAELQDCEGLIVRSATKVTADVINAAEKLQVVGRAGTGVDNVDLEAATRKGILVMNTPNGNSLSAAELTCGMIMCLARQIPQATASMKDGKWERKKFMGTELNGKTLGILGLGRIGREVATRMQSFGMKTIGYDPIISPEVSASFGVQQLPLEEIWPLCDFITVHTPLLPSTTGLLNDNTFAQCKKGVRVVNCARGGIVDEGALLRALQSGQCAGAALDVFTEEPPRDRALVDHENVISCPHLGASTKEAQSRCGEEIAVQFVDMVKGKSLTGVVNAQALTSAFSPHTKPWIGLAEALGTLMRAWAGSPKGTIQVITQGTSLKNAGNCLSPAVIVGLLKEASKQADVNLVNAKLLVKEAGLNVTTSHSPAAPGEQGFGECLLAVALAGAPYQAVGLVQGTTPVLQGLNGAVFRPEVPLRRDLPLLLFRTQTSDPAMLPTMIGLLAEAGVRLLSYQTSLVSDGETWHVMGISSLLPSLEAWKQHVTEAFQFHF
The arrangement: His-tagged full-length hPHGDH was expressed in BL21(DE3) E. coli cells; made in house; host or cells: E. coli BL21(DE3). To be noted: cited from earlier work.

In test [2] the target is T1, hPHGDH. The test is described as follows: hPHGDH forward reaction kinetics (PSAT-coupled or hydrazine assay, NADH fluorescence). It is filed as biochemical. Details: His-tagged full-length hPHGDH was expressed in BL21(DE3) E. coli cells; made in house; host or cells: E. coli BL21(DE3). The protocol:
PSAT was added to drive the reaction and to avoid product inhibition of hPHGDH.
(§1) The latter assay was used to determine the apparent kinetic parameters on alternative substrates.

Test [3] has as its target T1, hPHGDH. As to the kind of experiment: Effect of salts, phosphate and serine synthesis metabolites on hPHGDH activity (hydrazine assay). To be noted: for decrease of hPHGDH activity: […] 3PG. Details: His-tagged full-length hPHGDH was expressed in BL21(DE3) E. coli cells; made in house; host or cells: E. coli BL21(DE3). In kind it is biochemical. The source says: The effects of KCl, NaCl, MgCl2 and CaCl2 and of pH and temperature on enzyme activity and stability were investigated using the hydrazine assay. […] The dependence of activity on pH was fitted using an equation for three pKa values, according to [44], providing apparent values unrelated to microscopic ones.

For test [4], the target named is T1, hPHGDH. The test is described as follows: Ligand binding by quenching of protein fluorescence at 330 nm.
Procedure: Protein fluorescence spectra were measured at 0.06–0.1 mg/mL protein concentration in 10 mM potassium phosphate, pH 7.0, 15 °C; spectra were recorded using a Jasco FP-750 instrument and were corrected for the buffer contribution. Protein fluorescence spectra were recorded between 300 and 450 nm, with excitation at 280 and 298 nm.
All recorded spectra were subtracted for the contribution of the ligand (added to the buffer only) and were corrected for dilution at every addition. […] In all cases, Kd values were determined by fitting the data to a hyperbolic function.
Test [5] has as its target T1, hPHGDH. As to the kind of experiment: Temperature-ramp unfolding (melting temperature) with cofactors. The arrangement: His-tagged full-length hPHGDH was expressed in BL21(DE3) E. coli cells; made in house; host or cells: E. coli BL21(DE3). It is filed as binding.
Procedure: Temperature-ramp experiments were performed in 10 mM potassium phosphate, pH 7.0. For this, a software-driven, Peltier-equipped fluorimeter was used to measure the protein fluorescence change at 330 nm or a CD spectropolarimeter to follow the CD signal at 280 nm in order to reproduce a temperature gradient (0.5 °C/min) [31].
Test [6] has as its target T1, hPHGDH. As to the kind of experiment: Inhibition of hPHGDH activity by inhibitors (hydrazine assay). In kind it is biochemical. The arrangement: His-tagged full-length hPHGDH was expressed in BL21(DE3) E. coli cells; made in house; host or cells: E. coli BL21(DE3). Particulars: kinetics on 3PG at increasing inhibitor concentration.
For test [7], the target named is T1, hPHGDH. As to the kind of experiment: Limited proteolysis with trypsin, SDS-PAGE. Details: His-tagged full-length hPHGDH was expressed in BL21(DE3) E. coli cells; made in house; host or cells: E. coli BL21(DE3). Particulars: 5% (w/w) trypsin; 250 mM potassium phosphate, 500 mM sodium tartrate or 0.1 mM NCT-503. The protocol: hPHGDH at 0.4 mg/mL was incubated at 25 °C in 50 mM Hepes pH 7.5, 100 mM NaCl, 10% (v/v) glycerol, 1 mM EDTA and 5 mM 2-mercaptoethanol in the presence of 5% (w/w) trypsin (Roche, Basel, Switzerland). […] At different times (0, 30, 60, 120 and 240 min), 8 µg of protein was diluted in SDS-sample buffer, heated at 95 °C for 5 min and analyzed by SDS-PAGE.

The target of test [8] is T1, hPHGDH. As to the kind of experiment: hPHGDH reverse reaction kinetics (decrease in NADH fluorescence at 450 nm). To be noted: reverse reaction, 5 mM NADH.
From the text: as §1

Another test relates to E. coli PHGDH. Particulars: reverse reaction; cited from earlier work.
[9] abbreviates: substrate varied, […] NAD+, hydrazine assay, Figure S3B,D-F.

As to `O=C(O)C(O)COP(=O)(O)O` [3PG, D-3-phosphoglycerate], the Hill coefficient n at hPHGDH [1] (negative cooperativity in a previous work) is 0.63–0.67. Also, at hPHGDH [2] (3PG varied, 120 µM NAD+, PSAT-coupled assay, Figure S3A), the “maximal rate of Michaelis–Menten fit (numerator of y = a x/(b + x))” value turned out to be 1.282. Further, the “maximal rate of Michaelis–Menten fit” value at hPHGDH [2] (3PG varied, 120 µM NAD+, hydrazine assay, Figure S3A) stood at 1.5348; on hPHGDH [2] (setting [9]) it was 2.972. For the same molecule, on hPHGDH [2] (forward reaction, substrate varied, 120 µM NAD^+, PSAT-coupled (1) and hydrazine (2) assays, 37 °C, 25 mM Hepes pH 7.0, per monomer), the kcat (usually the maximal rate divided by the concentration of active sites) was determined as 1.5 s⁻¹. The Michaelis-Menten constant (Km) (as a rule, the concentration of substrate that gives half-maximal velocity) on hPHGDH [2] (forward reaction, substrate varied, 120 µM NAD^+, PSAT-coupled (1) and hydrazine (2) assays, 37 °C, pH 7.0) came out at 260 µM.
`CC(O)CC(=O)O` [D-3-Hydroxybutyrate]: the “maximal rate of Michaelis–Menten fit” value at hPHGDH [2] (setting [9]) came out at 2.527.
Turning to `C[C@@H](O)C(=O)O` [D-Lactate], on hPHGDH [2] (setting [9]), the “maximal rate of Michaelis–Menten fit” value was found to be 5.407.
For `O=C(O)C[C@@H](O)C(=O)O` [D-Malate], on hPHGDH [2] (setting [9]), the “maximal rate of Michaelis–Menten fit” value was 0.4351.
Turning to `O=C(O)[C@@H](O)[C@H](O)C(=O)O` [D-Tartrate], the “maximal rate of Michaelis–Menten fit” value on hPHGDH [2] (setting [9]) is reported as 0.4125.
Take `N[C@H](CO)C(=O)O` [D-serine]: on hPHGDH [3] (at 250 mM D-serine), the “decrease of hPHGDH activity” value is ~ 25%.
Regarding `[Cl-].[K+]` [KCl], the “decrease of hPHGDH activity” value on hPHGDH [3] (at 10 mM KCl, […] NAD+) was determined as 40%. Further, at hPHGDH [3] (at ≥10 mM KCl), the initial activity lost is on record as 30%.
For the molecule `NC(=O)c1ccc[n+]([C@@H]2O[C@H](COP(=O)(O)OP(=O)(O)OC[C@H]3O[C@@H](n4cnc5c(N)ncnc54)[C@H](O)[C@@H]3O)[C@@H](O)[C@H]2O)c1` [NAD^+], the pKd (commonly the negative decadic logarithm of the Kd, by convention in mol/L) on hPHGDH [4] (Kd (NAD^+; main phase of NADH binding), discussion value) is about 3.89; on hPHGDH [4] (Kd, quenching of protein fluorescence at 15 °C, 1 μM enzyme, monophasic) it was 3.89. Moreover, the “maximal rate of Michaelis–Menten fit” value at hPHGDH [2] (NAD+ varied, 2.5 mM 3PG, PSAT-coupled assay, Figure S3C) came out at 2.039; on hPHGDH [2] (NAD+ varied, 2.5 mM 3PG, hydrazine assay, Figure S3C) it was 2.4118. For the same molecule, the “Tm, circular dichroism signal at 280 nm” value on hPHGDH [5] (120 µM NAD^+ or 100 µM NADH, protein alone 47.5) worked out at 48.2 °C. The “Tm, CD (220 nm)” value at hPHGDH [5] (+120 μM NAD^+ or +100 μM NADH, hPHGDH alone 47.2 ± 0.5) came to 48.2 ± 1.7 °C. For the same molecule, at hPHGDH [5] (+120 μM NAD^+ or +100 μM NADH, hPHGDH alone 48.4 ± 2.1), the “Tm, Fluorescence (330 nm)” value is 52.4 °C and 52.4 ± 0.4 °C.
With `Cc1cc(C)nc(NC(=S)N2CCN(Cc3ccc(C(F)(F)F)cc3)CC2)c1` [NCT-503], the mechanism of inhibition result on hPHGDH [6] was “noncompetitive inhibitor; also recorded: noncompetitive inhibition mechanism”. Also, the “proteolysis of the full-length enzyme” value at hPHGDH [7] is “to a lesser extent”.
For `[Cl-].[Na+]` [NaCl], the initial activity lost on hPHGDH [3] (at >20 mM NaCl) stood at 30%.
`O=C(O)CC(=O)C(=O)O` [Oxaloacetate]: the “maximal rate of fit with substrate inhibition” value on hPHGDH [8] (Figure S4A,C,D) is 1.7591.
On to `O=P(O)(O)O` [potassium phosphate], for which the “proteolysis of the full-length enzyme” value on hPHGDH [7] is “hampered”. For the same molecule, the activity lost at hPHGDH [3] (at 1 mM potassium phosphate) worked out at 30%. Also, the “effect on enzymatic activity” value on hPHGDH [3] (at 400 mM phosphate) is reported as “fully abrogated”.
With `O=C([O-])C(O)C(O)C(=O)[O-].[Na+].[Na+]` (centres unmarked) [sodium tartrate], the “proteolysis of the full-length enzyme” value on hPHGDH [7] is recorded as “hampered”.
`O=C(O)CCC(=O)C(=O)O` [α-Ketoglutarate]: the Michaelis-Menten constant (Km) was 500 µM in the test on E. coli PHGDH and about 10000 µM at hPHGDH [1] (commercial enzyme preparation). The negative logarithm of the Ki (pKi) (commonly the negative decadic logarithm of the Ki, by convention in mol/L) was 1.88 at hPHGDH [8] (Ki (substrate inhibition), 37 °C, pH 7.0) and 1.88 on hPHGDH [8] (Ki of fit with substrate inhibition, Figure S4A,C,D).

The values are drawn from paper PMC8073719, “Biochemical and Biophysical Characterization of Recombinant Human 3-Phosphoglycerate Dehydrogenase” (International Journal of Molecular Sciences, 2021).
